Read-outs that look alike come from different tables or passages of the source. No end group written: not given here.
What was measured:
Assay in all cases: biochemical
Assay type in all cases: binding
[1] = target: HLA-DR DRB1*1302 (DR13) (Homo sapiens, UniProt P01903+P01911, A100E/A169T/K41T/L162R/M171V/P40S/Q125H/Q178H/Q39Y/Q99D/R42S/S66N/T262R/V115G/W38E/Y61H)
[2] = target: HLA-DR DRB1*1501 (DR15) (Homo sapiens, UniProt P01903+P01911)
[3] = target: HLA-DR DRB5*0101 (DR51) (Homo sapiens, UniProt P01903+Q30154)
[4] = target: HLA-DR DRB1*0101 (DR1) (Homo sapiens, UniProt P01903+P01911, A100R/D57E/F55L/F60I/F76Y/I96L/L162R/M171V/P40L/Q125E/R42F/V115G/Y59C)
[5] = target: HLA-DR DRB1*0401 (DR4) (Homo sapiens, UniProt P01903+P01911, A100K/A169T/F76Y/I96L/K127E/L162R/M171V/N62H/P40V/Q125Y/R42H/S133A/S149N/S66Y/V115G/V209L/W38E)
[6] = target: HLA-DR DRB1*0701 (DR7) (Homo sapiens, UniProt P01903+P01911, A100R/A102G/A103Q/D57E/D86V/E43K/F76Y/K127E/L162R/M171V/P40G/Q125H/Q99D/R33Q/R42Y/R54Q/S133A/S66F/T210M/V115G/Y107V/Y59L/Y89S)
[7] = target: HLA-DR DRB4*0101 (DR53) (Homo sapiens, UniProt P01903+P13762, G164S)

Chain of HLA-DR DRB1*1302 (DR13) (P01903 26-254 limits assumed, other chains not shown): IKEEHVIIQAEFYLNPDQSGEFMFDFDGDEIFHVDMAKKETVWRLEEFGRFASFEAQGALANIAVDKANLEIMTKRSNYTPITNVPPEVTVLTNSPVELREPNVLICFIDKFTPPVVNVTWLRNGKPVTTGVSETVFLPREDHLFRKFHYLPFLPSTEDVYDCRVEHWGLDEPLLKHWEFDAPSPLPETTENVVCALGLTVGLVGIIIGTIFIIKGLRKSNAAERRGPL

Q: Which IC50 ([1]; read-out: DRBI *1302) does the source give for VYDFVFADLRGVYRD here?
A: 79 nM

Q: And the IC50 ([2]; read-out: DRBI *1501)?
A: 855 nM

Q: And the IC50 ([3]; read-out: DRB5 *0101)?
A: > 51000 nM

Q: Which results are given for AALKATAAAAAAA?
A: IC50 ([4]; DRB1 *0101): ≥ 50000 nM; IC50 ([5]; DRB1 *0401): 800 nM

Q: Which IC50 ([4]; DRB1 *0101) does the source give for PEFLEQRRAAVDTYC here?
A: 5000 nM

Q: What about the IC50 ([5]; DRB1 *0401) of the same substance?
A: 80000 nM

Q: How did the IC50 ([4]; DRB1 *0101) turn out when HFNMLKNKMQSSFFM was run?
A: 12 nM

Q: What about the IC50 ([5]; DRB1 *0401) of the same substance?
A: 18 nM

Q: What about the IC50 ([6]; DRB1 *0701) of the same substance?
A: 3230 nM

Q: And the IC50 ([2]; DRBI *1501)?
A: 616 nM

Q: What about the IC50 ([7]; DRB4 *0101) of the same substance?
A: 934 nM

Q: And the IC50 ([3]; DRB5 *0101)?
A: 60 nM

Q: How did the IC50 ([5]; DRB1 *0401) turn out when PAYEKLSAEQSPPPY was run?
A: 479 nM

Q: How did the IC50 ([5]; DRB1 *0401) turn out when KSLLSTNLPYGRTNL was run?
A: 690 nM

Q: And the IC50 ([6]; DRB1 *0701)?
A: 50000 nM

Q: What does the source list for ENPVVHAFKNIVTPR?
A: IC50 ([2]; DRBI *1501): 4.1 nM; IC50 ([3]; DRB5 *0101): 910 nM

Q: How did the IC50 ([4]; read-out: DRB1 *0101) turn out when YAR(15A)RQTTLKA was run?
A: 1.6 nM

Q: What about the IC50 ([5]; read-out: DRB1 *0401) of the same substance?
A: 0.35 nM

Q: And the IC50 ([6]; read-out: DRB1 *0701)?
A: 8330 nM

Q: VGIRTPVLTSLFNKV was tested. Which IC50 ([7]; read-out: DRB4 *0101) did it give?
A: 97 nM

Q: And the IC50 ([3]; read-out: DRB5 *0101)?
A: 80 nM

Q: Which results are given for SMEYKKDFLITARKY?
A: IC50 ([1]; read-out: DRBI *1302): 3820 nM; IC50 ([2]; read-out: DRBI *1501): 4610 nM

Q: With QNILFSNAPLGPQFP as the substance, how does the IC50 ([5]; DRB1 *0401) read?
A: 195 nM

Q: Which IC50 ([7]; DRB4 *0101) does the source give for IRNLALQTLPAMCNVY here?
A: 1.9 nM

Q: With NPVVHFFKNIVTPR as the substance, how does the IC50 ([2]; DRBI *1501) read?
A: 3.7 nM

Q: What about the IC50 ([3]; DRB5 *0101) of the same substance?
A: 1890 nM

Q: EGDAFELTVSC was tested. Which IC50 ([5]; read-out: DRB1 *0401) did it give?
A: 572 nM

Q: How did the IC50 ([5]; read-out: DRB1 *0401) turn out when PKYFKQRLLKFAT was run?
A: 400 nM

Q: ESTGMTPEKVPVSEVM was tested. Which IC50 ([1]; read-out: DRBI *1302) did it give?
A: > 17500 nM

Q: And the IC50 ([7]; read-out: DRB4 *0101)?
A: > 64400 nM

Q: For FLYGALLLAEGFYTTGAVRQ, which IC50 ([2]; DRBI *1501) is on record?
A: 45 nM

Q: And the IC50 ([3]; DRB5 *0101)?
A: 256 nM

Q: Which results are given for YARFLALTTLRARA?
A: IC50 ([4]; read-out: DRB1 *0101): 0.98 nM; IC50 ([5]; read-out: DRB1 *0401): 0.28 nM

Q: YFNNFTVSFWLRVPK was tested. Which IC50 [4] did it give?
A: ≥ 50000 nM

Q: For EERVKKPLSEITIRC, which IC50 ([5]; DRB1 *0401) is on record?
A: 11900 nM

Q: And the IC50 ([6]; DRB1 *0701)?
A: 9450 nM

Q: What about the IC50 ([7]; DRB4 *0101) of the same substance?
A: 2990 nM

Q: And the IC50 ([3]; DRB5 *0101)?
A: 7910 nM

Q: PQPFKPQQPYPQ was tested. Which IC50 ([7]; DRB4 *0101) did it give?
A: 19 nM

Q: NYELSKKAVIFTPIY [NYELSKXAVIFTPIY] was tested. Which IC50 ([1]; DRBI *1302) did it give?
A: 410 nM

Q: And the IC50 ([2]; DRBI *1501)?
A: 537 nM

Q: And the IC50 ([3]; DRB5 *0101)?
A: 10600 nM

Q: Which IC50 ([5]; DRB1 *0401) does the source give for AFAAAKTAA here?
A: 571 nM

Q: PKYGKQIDLKGAT was tested. Which IC50 ([4]; DRB1 *0101) did it give?
A: ≥ 50000 nM

Q: With PQPFRKQQPYPQ as the substance, how does the IC50 ([7]; DRB4 *0101) read?
A: 22 nM
